Values of other authors, collected in PMC10147685, “Safety, tolerability, and pharmacokinetics of Aurora kinase B inhibitor AZD2811: a phase 1 dose-finding study in patients with advanced solid tumours” (British Journal of Cancer, 2023).

How the values were obtained:
[1] = tested on: patients with advanced solid tumours; set-up: method as in PMID 27349901; conditions: cited from earlier work
[2] = tested on: advanced solid tumours; set-up: method as in PMID 22661287; conditions: cited from earlier work

Structure (SMILES) | Objective responses [1] | Patients with SD ([1]; depending on the treatment schedule) | Objective responses [2] | Patients with SD [2]
CC(C)NC(=O)[C@H]1CCC[C@H]1Nc1nc(Nc2ccc(C(=O)N(C)C3CCN(C)CC3)cc2)ncc1C(F)(F)F [BI 811283] | no objective responses | 30–33% |  | 
CCN(CCCOc1ccc2c(Nc3cc(CC(=O)Nc4cccc(F)c4)n[nH]3)ncnc2c1)CCOP(=O)(O)O [barasertib] |  |  | no objective responses | 23%
